Assay [1] concerns L. donovani axenic amastigotes. Nature of the assay: L. donovani axenic amastigote compound sensitivity assay. Type of assay: cell-based, Leishmania donovani. To be noted: read-out: axenic amastigote EC50. Here is the method:
(§1) The clonal L. donovani cell line LdBOB (derived from MHOM/SD/62/1S-CL2D) was used in our in vitro compound screening and mechanism of action studies. Promastigotes were grown at 26 °C in modified M199 media with axenic amastigotes grown at 37 °C, as previously described.[35] All animal studies were carried using L. donovani (LV9; WHO designation: MHOM/ET/67/HU3).
(§2) These assays were carried out as previously described.[25],[36],[37]

The subject of a further assay is THP-1. Nature of the assay: THP-1 host cell toxicity in the intramacrophage assay. Type of assay: cell-based. Here is the method:
as §2

In a further assay the target is T1, L. major NMT (LmNMT) (Leishmania major, UniProt Q4Q5S8).
T1 construct: Recombinant LmNMT was expressed and purified as previously described; made in house
T1 sequence (Q4Q5S8 entry or part of it): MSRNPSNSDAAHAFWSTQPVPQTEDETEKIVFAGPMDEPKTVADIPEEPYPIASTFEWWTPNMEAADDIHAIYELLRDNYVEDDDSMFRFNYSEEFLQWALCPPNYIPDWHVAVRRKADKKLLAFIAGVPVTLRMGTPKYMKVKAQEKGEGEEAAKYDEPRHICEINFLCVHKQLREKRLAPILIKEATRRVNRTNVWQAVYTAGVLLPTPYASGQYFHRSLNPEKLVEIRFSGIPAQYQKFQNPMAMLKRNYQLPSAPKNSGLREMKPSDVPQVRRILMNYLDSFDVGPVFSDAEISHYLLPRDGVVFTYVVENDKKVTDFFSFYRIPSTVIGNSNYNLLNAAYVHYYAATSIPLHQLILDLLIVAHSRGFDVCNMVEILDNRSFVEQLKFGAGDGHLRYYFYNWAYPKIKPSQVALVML
Nature of the assay: LmNMT enzymatic assay (scintillation proximity, [3H]myristoyl-CoA, CAP5.5 peptide). Type of assay: biochemical. Background: In a scintillation proximity assay essentially only radioactivity close to the scintillant gives light.

The target in the next assay is T2, human NMT (HsNMT) (Homo sapiens, UniProt P30419).
T2 sequence (P30419 1-496): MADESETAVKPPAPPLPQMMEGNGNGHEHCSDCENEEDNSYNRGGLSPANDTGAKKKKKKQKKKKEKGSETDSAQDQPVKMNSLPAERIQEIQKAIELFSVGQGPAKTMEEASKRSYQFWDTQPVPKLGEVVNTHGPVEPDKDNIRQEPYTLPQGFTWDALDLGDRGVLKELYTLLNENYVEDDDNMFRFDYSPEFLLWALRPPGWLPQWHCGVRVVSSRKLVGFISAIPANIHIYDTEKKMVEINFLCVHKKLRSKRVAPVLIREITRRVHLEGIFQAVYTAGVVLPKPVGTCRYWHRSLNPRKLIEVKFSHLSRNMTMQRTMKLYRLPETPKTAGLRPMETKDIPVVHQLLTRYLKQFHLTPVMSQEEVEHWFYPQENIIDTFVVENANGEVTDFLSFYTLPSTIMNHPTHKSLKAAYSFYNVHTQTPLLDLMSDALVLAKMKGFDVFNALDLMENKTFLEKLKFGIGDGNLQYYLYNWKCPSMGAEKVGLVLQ
Nature of the assay: counter-screen against human NMT. In kind it is biochemical.

In assay [2] the test system is L. donovani intracellular amastigotes. Nature of the assay: L. donovani intramacrophage (intracellular amastigote) assay. To be noted: read-out: intramacrophage EC50. Type of assay: cell-based, Leishmania donovani. As for the experimental part:
as §1, §2

Assay [3] deals with L. donovani promastigotes. In words: L. donovani promastigote compound sensitivity assay. Type of assay: cell-based, Leishmania donovani. To be noted: read-out: promastigote EC50. As for the experimental part:
as §1, §2

In assay [4] the test system is Trypanosoma brucei N-myristoyltransferase (TbNMT). The conditions noted are these: cited from earlier work.
For assay [5], the system named is Trypanosoma brucei. To be noted: cited from earlier work.
Assay [6] deals with Trypanosoma brucei. More on the design: method as in PMID 20360736. The conditions noted are these: cited from earlier work.
For assay [7], the system named is L. donovani amastigotes (LV9). In words: mouse model of VL (BALB/c mice infected with L. donovani LV9).
Assay [8] concerns intracellular amastigote form of T. cruzi. Nature of the assay: T. cruzi intracellular amastigote assay. In kind it is cell-based. To be noted: Trypanosoma cruzi; read-out: EC50 against T. cruzi intracellular amastigotes.
In another assay the test system is Vero cells. Nature of the assay: host Vero cell toxicity. In kind it is cell-based. To be noted: Chlorocebus sabaeus, read-out: EC50 against host Vero cells.
The mark [9] stands for this setting: Leishmania donovani, L. donovani LdBOB.
Setting [10] is: Homo sapiens, THP-1; read-out: THP-1 EC50.
The mark [11] stands for this setting: Leishmania donovani, L. donovani intracellular amastigotes.
The mark [12] stands for this setting: Homo sapiens, THP-1, read-out: THP-1 EC50.

As usually defined, the EC50 is the concentration that produces a half-maximal response. The IC50 is the concentration that inhibits the measured activity by half.

Where two headings read alike, the source gives them in different places. Some results are limits rather than exact numbers.

Consider `Cc1nn(C)c(C)c1N(C)S(=O)(=O)c1c(Cl)cc(N2CCN(C(=O)c3cn[nH]c3)CC2)cc1Cl` [compound 6, 4-(4-(1H-Pyrazole-4-carbonyl)piperazin-1-yl)-2,6-dichloro-N-methyl-N-(1,3,5-trimethyl-1H-pyrazol-4-yl)benzenesulfonamide], for which the EC50 (in [1] (setting [9]); in the assay on THP-1 (setting [10]); in assay [2] (setting [11]); in assay [3] (setting [9])) was over 50 µM in each case. The IC50 at L. major NMT (LmNMT) was determined as 0.06 µM; on human NMT (HsNMT), 0.1 µM.
Turning to `Cc1nn(C)c(C)c1N(C)S(=O)(=O)c1c(Cl)cc(N2CCN(C(=O)Cc3ccccc3)CC2)cc1Cl` [compound 9, 2,6-Dichloro-N-methyl-4-(4-(2-phenylacetyl)piperazin-1-yl)-N-(1,3,5-trimethyl-1H-pyrazol-4-yl)benzenesulfonamide], the EC50 in assay [1] (setting [9]) is 2.2 ± 0.03 µM; in the assay with THP-1 (setting [10]) it was over 50 µM; in [2] (setting [11]) it was 40.5 ± 13.4 µM; in assay [3] (setting [9]), 6.3 ± 0.3 µM. Moreover, the IC50 on L. major NMT (LmNMT) was determined as 10 µM; on human NMT (HsNMT), 6.3 µM. Also, the “potency against LmNMT (in words)” value on L. major NMT (LmNMT) is given as “poor activity”.
For `Cc1nn(C)c(C)c1N(C)S(=O)(=O)c1c(Cl)cc(N2CCN(C(=O)c3cccnc3)CC2)cc1Cl` [compound 7, 2,6-Dichloro-N-methyl-4-(4-nicotinoylpiperazin-1-yl)-N-(1,3,5-trimethyl-1H-pyrazol-4-yl)benzenesulfonamide], the EC50 in [1] (setting [9]) was 0.3 ± 0.01 µM; with THP-1 (setting [10]), over 50 µM; in assay [2] (setting [11]), over 50 µM; in [3] (setting [9]) it was 5.8 ± 0.4 µM. The 50% inhibitory concentration (IC50) on L. major NMT (LmNMT) is 0.1 µM; against human NMT (HsNMT), 0.5 µM.
For `Cc1nn(C)c(C)c1N(C)S(=O)(=O)c1c(Cl)cc(N2CCN(C(=O)c3ccc(N)cc3)CC2)cc1Cl` [compound 8, 4-(4-(4-Aminobenzoyl)piperazin-1-yl)-2,6-dichloro-N-methyl-N-(1,3,5-trimethyl-1H-pyrazol-4-yl)benzenesulfonamide], the EC50 was 5.1 ± 0.2 µM in [1] (setting [9]), over 50 µM in the assay with THP-1 (setting [10]), over 50 µM in assay [2] (setting [11]) and 8.2 ± 0.5 µM in assay [3] (setting [9]). Besides, the IC50 worked out at 0.03 µM against L. major NMT (LmNMT) and 0.008 µM against human NMT (HsNMT).
`Cc1nn(C)c(C)c1NS(=O)(=O)c1c(Cl)cc(-c2ccnc(N3CCNCC3)c2)cc1Cl` [DDD85646]: the “inhibition of TbNMT (in words)” value in assay [4] is given as “low nM inhibitor”. Besides, the “activity in the stage 2 HAT mouse model (in words)” value in the assay on Trypanosoma brucei [5] is given as “not active”. Besides, in the assay on Trypanosoma brucei [6], the “efficacy in mouse models of stage 1 HAT (in words)” value was “curative”.
For `Cc1nn(C)c(C)c1N[S+](=O)([O-])c1ccc(CCCC2CCNCC2)cc1` [compound 1], the EC50 (in assay [1] (L. donovani LdBOB); with THP-1 (read-out: THP-1 EC50); in assay [2] (L. donovani intracellular amastigotes); in assay [3] (L. donovani LdBOB)) was over 50 µM in each case. The IC50 on L. major NMT (LmNMT) (5 nM LmNMT, 0.5 μM CAP5.5, 0.125 μM myristoyl-CoA, read-out: LmNMT IC50) was 0.4 µM.
Turning to `CCCCCCCCCCCCCCCCOP(=O)([O-])OCC[N+](C)(C)C` [miltefosine], in assay [7] (30 mg kg^-1 orally q.d. for 5 days), the “reduction in liver parasite burden (LDU) versus vehicle” value (“reduction in liver parasite burden” below) was 88%.
On to `O.O.O.O.O.O.O.O.O.O=C([O-])[C@@H]1[O][Sb](=[O])([O][Sb]2(=[O])[O][C@H]([C@H](O)CO)[C@H](O)[C@H](C(=O)[O-])[O]2)[O][C@H]([C@H](O)CO)[C@@H]1O.[Na+].[Na+].[Na+]` (some centres unmarked) [sodium stibogluconate], for which, in assay [7] (15 mg kg^-1 subcutaneous q.d. for 5 days), the “reduction in liver parasite burden” value was 52%.
Consider `Cc1nn(C)c(C)c1N(C)S(=O)(=O)c1c(Cl)cc(N2CCN(C(=O)c3ccn[nH]3)CC2)cc1Cl` [compound 4, 4-(4-(1H-Pyrazole-5-carbonyl)piperazin-1-yl)-2,6-dichloro-N-methyl-N-(1,3,5-trimethyl-1H-pyrazol-4-yl)benzenesulfonamide], for which the EC50 in assay [1] (setting [9]) was 2.7 ± 0.08 µM; in the assay on THP-1 (setting [10]), over 50 µM; in [2] (setting [11]), over 50 µM; in assay [3] (setting [9]), 18.3 ± 0.1 µM. In addition, the results for the IC50 on L. major NMT (LmNMT) and on human NMT (HsNMT) were 0.03 µM and 0.02 µM, respectively.
On to `Cc1nn(C)c(C)c1N(C)S(=O)(=O)c1c(Cl)cc(CCCC2CCN(C)CC2)cc1Cl` [compound 3], for which the EC50 in [1] (Leishmania donovani) is 8.2 ± 0.6 µM; in the assay on THP-1 (setting [12]) it was over 50 µM; in assay [2] (Leishmania donovani), 7.1 ± 1.1 µM; in [3] (Leishmania donovani) it was 0.07 ± 0.004 µM.
`Cc1nn(C)c(C)c1N(C(F)F)S(=O)(=O)c1c(Cl)cc(CCCC2CCN(C)CC2)cc1Cl` [compound 2]: the EC50 in assay [1] (Leishmania donovani) worked out at 0.2 ± 0.006 µM; with THP-1 (setting [12]), 15.8 µM; in assay [2] (Leishmania donovani), 2.4 ± 0.8 µM; in [8] it was 0.47 µM; in the assay with Vero cells, 5.1 µM; in assay [3] (Leishmania donovani) it was 0.04 ± 0.001 µM. The “efficacy in the stage 2 mouse model (in words)” value in the assay on Trypanosoma brucei [5] is given as “moderate efficacy”. Further, in assay [7] (50 mg kg^-1 orally b.i.d. for 5 days), the “reduction in liver parasite burden” value was 52%.
`Cc1nn(C)c(C)c1N(C)S(=O)(=O)c1c(Cl)cc(N2CCN(C(=O)c3cnn(C)c3)CC2)cc1Cl` [compound 5, 2,6-Dichloro-N-methyl-4-(4-(1-methyl-1H-pyrazole-4-carbonyl)piperazin-1-yl)-N-(1,3,5-trimethyl-1H-pyrazol-4-yl)benzenesulfonamide]: the EC50 in [1] (setting [9]) was 9.2 ± 0.4 µM; in the assay with THP-1 (setting [10]) it was over 50 µM; in assay [2] (setting [11]), over 50 µM; in assay [3] (setting [9]) it was 10 ± 0.4 µM. In addition, the IC50 against L. major NMT (LmNMT) and at human NMT (HsNMT) was 0.08 µM throughout.

The values above are taken from publication PMC6332449, “Pharmacological Validation of N-Myristoyltransferase as a Drug Target in Leishmania donovani” (ACS Infectious Diseases, 2018).
